Data as given in patent US12109196B2, “Non-sedating dexmedetomidine treatment regimens” (BioXcel Therapeutics, Inc., priority 2019, dated 2024).
Structures can show the parent of a compound that is named as a salt. Where two headings read alike, the source gives them in different places.

Key:
[1] = system: agitation in subjects suffering from schizophrenia
Excerpt: (§1) Another Key Objective of the study was to determine the reduction in the level of agitation, as determined by their PEC score, at the doses to achieve a RASS of −1.
(§2) Patients 5, 7, 8 and 9 received placebo.
(§3) CGI-I focused on the severity of agitation rather than the severity of the illness. • (4) After the infusion was stopped, the participants were judged for the suitability for discharge by the principal investigator or designee as witnessed by a return to their baseline level of alertness and awareness with no impairment in balance, gait, and reaction time as determined by the principal investigator or designee. Results (A) Efficacy Study RASS (Richmond Agitation-Sedation Scale)

[2] = system: subjects suffering from schizophrenia
Excerpt: as §1, §2, §3

[3] = Method: as §2
The level of dexmedetomidine in the plasma of patients was also measured over the time of infusion.

[4] = system: acute agitation associated with schizophrenia, schizoaffective disorder or schizophreniform disorder; details: 2 hours post-dose
Protocol: PEC comprised 5 items associated with agitation: poor impulse control, tension, hostility, uncooperativeness, and excitement; each scored 1 (minimum) to 7 (maximum). The PEC, the sum of these 5 subscales, thus ranging from 5 to 35.
Efficacy Analyses: The primary efficacy endpoint of the study was the absolute change from baseline in PEC score at 120 mins (2 hours). The intent to treat population (ITT) was analyzed and consisted of all patients who took any study medication and who had both baseline and at least 1 efficacy assessment after dosing. Analyses were conducted using a restricted maximum likelihood repeated measures mixed model on change from baseline values with baseline as a covariate and timepoint, and its interaction with treatment groups as repeated measures using an unstructured covariance structure. Responder comparisons were made via Fisher's exact test.
There were 5 dose cohorts (20 μg, 60 μg, 80 μg, 120 μg and 180 μg) with 18 active patients (total of 90 patients) and 9 placebo patients (total of 45 patients) in each cohort. Active patients in each of the 5 dose cohorts were compared to placebo patients from all 5 cohorts (pooled placebo group).

Cc1cccc([C@H](C)c2cnc[nH]2)c1C [dexmedetomidine hydrochloride, (+) 4-(S)-[1-(2,3-dimethylphenyl)ethyl]-1H-imidazole]
Patients (out of 10) in the treatment arm with agitation reduced to a PEC score of 7 or below ([1]; IV infusion): 9 | Subjects (of 10) with >=50% reduction in PEC score ([1]; IV route): 7 | PEC value after infusion start ([1]; Patient 1 (treatment arm), 0 Mins): 9 | PEC value after infusion start ([1]; Patient 1 (treatment arm), 15 Mins): 5 | PEC value after infusion start ([1]; Patient 2 (treatment arm), 0 Mins): 16 | PEC value after infusion start ([1]; Patient 2 (treatment arm), 15 Mins): 13 | PEC value after infusion start ([1]; Patient 2 (treatment arm), 30 Mins): 12 | PEC value after infusion start ([1]; Patient 2 (treatment arm), 45 Mins): 11 | PEC value after infusion start ([1]; Patient 2 (treatment arm), 60 Mins): 9 | PEC value after infusion start ([1]; Patient 2 (treatment arm), 75 Mins): 7 | PEC value after infusion start ([1]; Patient 3 (treatment arm), 0 Mins): 12 | PEC value after infusion start ([1]; Patient 3 (treatment arm), 15 Mins): 12 | PEC value after infusion start ([1]; Patient 3 (treatment arm), 30 Mins): 10 | PEC value after infusion start ([1]; Patient 3 (treatment arm), 45 Mins): 7 | PEC value after infusion start ([1]; Patient 3 (treatment arm), 60 Mins): 6 | PEC value after infusion start ([1]; Patient 4 (treatment arm), 0 Mins): 9 | PEC value after infusion start ([1]; Patient 4 (treatment arm), 15 Mins): 9 | PEC value after infusion start ([1]; Patient 4 (treatment arm), 30 Mins): 8 | PEC value after infusion start ([1]; Patient 4 (treatment arm), 45 Mins): 8 | PEC value after infusion start ([1]; Patient 4 (treatment arm), 60 Mins): 7 | PEC value after infusion start ([1]; Patient 4 (treatment arm), 75 Mins): 7 | PEC value after infusion start ([1]; Patient 4 (treatment arm), 90 Mins): 7 | PEC value after infusion start ([1]; Patient 4 (treatment arm), 105 Mins): 7 | PEC value after infusion start ([1]; Patient 4 (treatment arm), 120 Mins): 7 | PEC value after infusion start ([1]; Patient 4 (treatment arm), 135 Mins): 7 | PEC value after infusion start ([1]; Patient 11 (treatment arm), 0 Mins): 13 | PEC value after infusion start ([1]; Patient 11 (treatment arm), 15 Mins): 13 | PEC value after infusion start ([1]; Patient 11 (treatment arm), 30 Mins): 11 | PEC value after infusion start ([1]; Patient 11 (treatment arm), 45 Mins): 9 | PEC value after infusion start ([1]; Patient 11 (treatment arm), 60 Mins): 9 | PEC value after infusion start ([1]; Patient 11 (treatment arm), 75 Mins): 7 | PEC value after infusion start ([1]; Patient 12 (treatment arm), 0 Mins): 13 | PEC value after infusion start ([1]; Patient 12 (treatment arm), 15 Mins): 13 | PEC value after infusion start ([1]; Patient 12 (treatment arm), 30 Mins): 13 | PEC value after infusion start ([1]; Patient 12 (treatment arm), 45 Mins): 10 | PEC value after infusion start ([1]; Patient 12 (treatment arm), 60 Mins): 10 | PEC value after infusion start ([1]; Patient 12 (treatment arm), 75 Mins): 8 | PEC value after infusion start ([1]; Patient 12 (treatment arm), 90 Mins): 6 | PEC value after infusion start ([1]; Patient 12 (treatment arm), 105 Mins): 5 | PEC value after infusion start ([1]; Patient 14 (treatment arm), 0 Mins): 10 | PEC value after infusion start ([1]; Patient 14 (treatment arm), 15 Mins): 9 | PEC value after infusion start ([1]; Patient 14 (treatment arm), 30 Mins): 6 | PEC value after infusion start ([1]; Patient 14 (treatment arm), 45 Mins): 6 | PEC value after infusion start ([1]; Patient 14 (treatment arm), 60 Mins): 5 | PEC value after infusion start ([1]; Patient 14 (treatment arm), 75 Mins): 5 | PEC value after infusion start ([1]; Patient 16 (treatment arm), 0 Mins): 10 | PEC value after infusion start ([1]; Patient 16 (treatment arm), 15 Mins): 9 | PEC value after infusion start ([1]; Patient 16 (treatment arm), 30 Mins): 6 | PEC value after infusion start ([1]; Patient 16 (treatment arm), 45 Mins): 6 | PEC value after infusion start ([1]; Patient 16 (treatment arm), 60 Mins): 7 | PEC value after infusion start ([1]; Patient 16 (treatment arm), 75 Mins): 5 | PEC value after infusion start ([1]; Patient 17 (treatment arm), 0 Mins): 10 | PEC value after infusion start ([1]; Patient 17 (treatment arm), 15 Mins): 8 | PEC value after infusion start ([1]; Patient 17 (treatment arm), 30 Mins): 7 | PEC value after infusion start ([1]; Patient 17 (treatment arm), 45 Mins): 5 | Patients (out of 10) in the treatment arm who achieved a RASS score of at least −1 ([2]; IV infusion from 0.2 mcg/kg/hr rising 0.1 mcg/kg/hr every 30 minutes): 9 | RASS value after infusion start ([2]; Patient 1 (treatment arm), 0 minutes): 1 | RASS value after infusion start ([2]; Patient 1 (treatment arm), 15 minutes): −2 | RASS value after infusion start ([2]; Patient 2 (treatment arm), 0 minutes): 3 | RASS value after infusion start ([2]; Patient 2 (treatment arm), 30 minutes): 0 | RASS value after infusion start ([2]; Patient 2 (treatment arm), 60 minutes): 0 | RASS value after infusion start ([2]; Patient 2 (treatment arm), 75 minutes): −1 | RASS value after infusion start ([2]; Patient 3 (treatment arm), 0 minutes): 1 | RASS value after infusion start ([2]; Patient 3 (treatment arm), 30 minutes): 0 | RASS value after infusion start ([2]; Patient 3 (treatment arm), 45 minutes): 0 | RASS value after infusion start ([2]; Patient 3 (treatment arm), 60 minutes): −1 | RASS value after infusion start ([2]; Patient 4 (treatment arm), 0 minutes): 1 | RASS value after infusion start ([2]; Patient 4 (treatment arm), 30 minutes): 0 | RASS value after infusion start ([2]; Patient 4 (treatment arm), 60 minutes): 0 | RASS value after infusion start ([2]; Patient 4 (treatment arm), 90 minutes): 0 | RASS value after infusion start ([2]; Patient 4 (treatment arm), 120 minutes): 0 | RASS value after infusion start ([2]; Patient 4 (treatment arm), […]): 0 | RASS value after infusion start ([2]; Patient 11 (treatment arm), 0 minutes): 1 | RASS value after infusion start ([2]; Patient 11 (treatment arm), 30 minutes): 0 | RASS value after infusion start ([2]; Patient 11 (treatment arm), 60 minutes): 0 | RASS value after infusion start ([2]; Patient 11 (treatment arm), 75 minutes): −1 | RASS value after infusion start ([2]; Patient 12 (treatment arm), 0 minutes): 1 | RASS value after infusion start ([2]; Patient 12 (treatment arm), 30 minutes): 0 | RASS value after infusion start ([2]; Patient 12 (treatment arm), 60 minutes): 0 | RASS value after infusion start ([2]; Patient 12 (treatment arm), 90 minutes): 0 | RASS value after infusion start ([2]; Patient 12 (treatment arm), 120 minutes): −1 | RASS value after infusion start ([2]; Patient 14 (treatment arm), 0 minutes): 1 | RASS value after infusion start ([2]; Patient 14 (treatment arm), 30 minutes): 0 | RASS value after infusion start ([2]; Patient 14 (treatment arm), 60 minutes): 0 | RASS value after infusion start ([2]; Patient 14 (treatment arm), 75 minutes): −1 | RASS value after infusion start ([2]; Patient 16 (treatment arm), 0 minutes): 1 | RASS value after infusion start ([2]; Patient 16 (treatment arm), 30 minutes): 0 | RASS value after infusion start ([2]; Patient 16 (treatment arm), 60 minutes): 0 | RASS value after infusion start ([2]; Patient 16 (treatment arm), 75 minutes): −1 | RASS value after infusion start ([2]; Patient 17 (treatment arm), 0 minutes): 1 | RASS value after infusion start ([2]; Patient 17 (treatment arm), 30 minutes): 0 | RASS value after infusion start ([2]; Patient 17 (treatment arm), 45 minutes): −1 | RASS value after infusion start ([2]; Patient 18 (treatment arm), 0 minutes): 0 | RASS value after infusion start ([2]; Patient 18 (treatment arm), 15 minutes): −1 | Plasma level concentration ([3]; Patient 1 (Treatment), 0 Mins): BLQ | Plasma level concentration ([3]; Patient 1 (Treatment), 15 Mins): 0.02245 ng/mL | Plasma level concentration ([3]; Patient 1 (Treatment), 30 Mins): 0.01472 ng/mL | Plasma level concentration ([3]; Patient 2 (Treatment), 0 Mins): BLQ | Plasma level concentration ([3]; Patient 2 (Treatment), 30 Mins): BLQ | Plasma level concentration ([3]; Patient 3 (Treatment), 30 Mins): BLQ | Plasma level concentration ([3]; Patient 3 (Treatment), 45 Mins): BLQ | Plasma level concentration ([3]; Patient 4 (Treatment), 0 Mins): BLQ | Plasma level concentration ([3]; Patient 4 (Treatment), 15 Mins): BLQ | Plasma level concentration ([3]; Patient 4 (Treatment), 30 Mins): BLQ | Plasma level concentration ([3]; Patient 4 (Treatment), 45 Mins): BLQ | Plasma level concentration ([3]; Patient 4 (Treatment), 60 Mins): BLQ | Plasma level concentration ([3]; Patient 4 (Treatment), 75 Mins): BLQ | Plasma level concentration ([3]; Patient 4 (Treatment), 90 Mins): 0.0443 ng/mL | Plasma level concentration ([3]; Patient 11 (Treatment), 0 Mins): BLQ | Plasma level concentration ([3]; Patient 11 (Treatment), 15 Mins): 0.04101 ng/mL | Plasma level concentration ([3]; Patient 11 (Treatment), 30 Mins): 0.06291 ng/mL | Plasma level concentration ([3]; Patient 11 (Treatment), 45 Mins): 0.12407 ng/mL | Plasma level concentration ([3]; Patient 11 (Treatment), 60 Mins): 0.15047 ng/mL | Plasma level concentration ([3]; Patient 12 (Treatment), 0 Mins): BLQ | Plasma level concentration ([3]; Patient 12 (Treatment), 15 Mins): BLQ | Plasma level concentration ([3]; Patient 12 (Treatment), 30 Mins): 0.04487 ng/mL | Plasma level concentration ([3]; Patient 12 (Treatment), 45 Mins): 0.05051 ng/mL | Plasma level concentration ([3]; Patient 12 (Treatment), 60 Mins): 0.1086 ng/mL | Plasma level concentration ([3]; Patient 12 (Treatment), 75 Mins): 0.15854 ng/mL | Plasma level concentration ([3]; Patient 12 (Treatment), 90 Mins): 0.23783 ng/mL | Plasma level concentration ([3]; Patient 12 (Treatment), 105 Mins): 0.2673 ng/mL | Plasma level concentration ([3]; Patient 14 (Treatment), 0 Mins): BLQ | Plasma level concentration ([3]; Patient 14 (Treatment), 15 Mins): BLQ | Plasma level concentration ([3]; Patient 14 (Treatment), 30 Mins): 0.05266 ng/mL | Plasma level concentration ([3]; Patient 14 (Treatment), 45 Mins): 0.04653 ng/mL | Plasma level concentration ([3]; Patient 14 (Treatment), 60 Mins): 0.4063 ng/mL | Plasma level concentration ([3]; Patient 16 (Treatment), 0 Mins): BLQ | Plasma level concentration ([3]; Patient 16 (Treatment), 15 Mins): 0.00256 ng/mL | Plasma level concentration ([3]; Patient 16 (Treatment), 30 Mins): 0.01559 ng/mL | Plasma level concentration ([3]; Patient 16 (Treatment), 45 Mins): 0.04117 ng/mL | Plasma level concentration ([3]; Patient 16 (Treatment), 60 Mins): 0.06788 ng/mL | Plasma level concentration ([3]; Patient 16 (Treatment), 75 Mins): 0.07226 ng/mL | Plasma level concentration ([3]; Patient 17 (Treatment), 0 Mins): BLQ | Plasma level concentration ([3]; Patient 17 (Treatment), 15 Mins): 0.01587 ng/mL | Plasma level concentration ([3]; Patient 17 (Treatment), 30 Mins): BLQ | Plasma level concentration ([3]; Patient 17 (Treatment), 45 Mins): 0.03993 ng/mL | Plasma level concentration ([3]; Patient 18 (Treatment), 0 Mins): BLQ | Plasma level concentration ([3]; Patient 18 (Treatment), 15 Mins): 0.04836 ng/mL | Plasma level concentration ([3]; Patient 18 (Treatment), 30 Mins): 0.05453 ng/mL | PANSS-PEC Total Score, Change from baseline, mean (SD) ([4]; 80 μg): −7.3 | PANSS-PEC Total Score, Change from baseline, mean (SD) ([4]; 120 μg): −9.2 | PANSS-PEC Total Score, Change from baseline, mean (SD) ([4]; 180 μg): −10.8
